# Source: PubChem BioAssay AID212 (DTP/NCI, 2004)
# Several values for one entry are separate records, joined by “and”; a condition that tells them apart may be missing. Equal entries are not always repeated. Results filed as inconclusive are left out.
# System: BDF1 mice, colon carcinoma 38 sc, T/C %
# Assay: NCI In Vivo Anticancer Drug Screen. Data for tumor model Colon Carcinoma 38 (subcutaneous) in B6D2F1 (BDF1) mice
# Settings: endpoint: median tumor weight (est.), higher = larger tumour
# Summary of the method: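 Compound antitumor activity was assessed in mice carrying transplantable tumors. Survival or tumor size was recorded, and each value is the treated-group measurement divided by that of the vehicle-treated control group.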
# [1] = dose: 50.0 mg/kg/injection, schedule: Q07DX002 (ip), vehicle: suspension in saline
# [2] = dose: 100.0 mg/kg/injection, schedule: Q07DX002 (ip), vehicle: suspension in saline
# [3] = dose: 200.0 mg/kg/injection, schedule: Q07DX002 (ip), vehicle: suspension in saline
# [4] = dose: 25.0 mg/kg/injection, schedule: Q07DX002 (ip), vehicle: Klucel (hydroxypropylcellulose) (HPC)
# [5] = dose: 50.0 mg/kg/injection, schedule: Q07DX002 (ip), vehicle: Klucel (hydroxypropylcellulose) (HPC)
# [6] = dose: 100.0 mg/kg/injection, schedule: Q07DX002 (ip), vehicle: Klucel (hydroxypropylcellulose) (HPC)
# [7] = dose: 200.0 mg/kg/injection, schedule: Q07DX002 (ip), vehicle: Klucel (hydroxypropylcellulose) (HPC)
# [8] = dose: 12.5 mg/kg/injection, schedule: Q07DX002 (ip), vehicle: saline with Tween-80
# [9] = dose: 25.0 mg/kg/injection, schedule: Q07DX002 (ip), vehicle: saline with Tween-80
# [10] = dose: 100.0 mg/kg/injection, schedule: Q07DX002 (ip), vehicle: saline with Tween-80
smiles,measurement,setting,value
O=C(O)C(CSC(c1ccccc1)(c1ccccc1)c1ccccc1)N=Cc1cccs1 (configuration not stated),T/C,"dose: 25.0 mg/kg/injection, schedule: Q07DX002 (ip), vehicle: saline",62 % of control
same,T/C,"dose: 25.0 mg/kg/injection, schedule: Q07DX002 (ip), vehicle: suspension in saline",103 % of control
same,T/C,"dose: 50.0 mg/kg/injection, schedule: Q07DX002 (ip), vehicle: saline",101 % of control
same,T/C,[1],84 % of control
same,T/C,"dose: 100.0 mg/kg/injection, schedule: Q07DX002 (ip), vehicle: saline",87 % of control
same,T/C,[2],107 % of control
same,T/C,"dose: 200.0 mg/kg/injection, schedule: Q07DX002 (ip), vehicle: saline",51 % of control
same,T/C,[3],62 % of control
Nc1nc2n[nH]nc2c(=O)[nH]1,T/C,[1],64 % of control
same,T/C,[2],80 % of control
same,T/C,[3],57 % of control
same,T/C,"dose: 400.0 mg/kg/injection, schedule: Q07DX002 (ip), vehicle: suspension in saline",51 % of control
Nc1nc(N)c2cc(CNc3ccc(C(=O)NC(CC(=O)O)CC(=O)O)cc3)ccc2n1,T/C,[4],120 % of control
same,T/C,[5],97 % of control
same,T/C,[6],60 % of control
same,T/C,[7],114 % of control
same,T/C,"dose: 400.0 mg/kg/injection, schedule: Q07DX002 (ip), vehicle: Klucel (hydroxypropylcellulose) (HPC)",76 % of control
C=C1C(C)C2C(Cc3ccccc3)NC(=O)C23C(OC(C)=O)C=CC(C)(O)C(=O)C(C)C/C=C/C3C1O (configuration not stated),T/C,"dose: 0.31 mg/kg/injection, schedule: Q07DX003 (ip), vehicle: Klucel (hydroxypropylcellulose) (HPC)",93 % of control
same,T/C,"dose: 0.62 mg/kg/injection, schedule: Q07DX003 (ip), vehicle: Klucel (hydroxypropylcellulose) (HPC)",53 % of control
same,T/C,"dose: 1.25 mg/kg/injection, schedule: Q07DX003 (ip), vehicle: Klucel (hydroxypropylcellulose) (HPC)",72 % of control
same,T/C,"dose: 2.5 mg/kg/injection, schedule: Q07DX003 (ip), vehicle: Klucel (hydroxypropylcellulose) (HPC)",100 % of control
same,T/C,"dose: 5.0 mg/kg/injection, schedule: Q07DX003 (ip), vehicle: Klucel (hydroxypropylcellulose) (HPC)",84 % of control
same,T/C,"dose: 10.0 mg/kg/injection, schedule: Q07DX003 (ip), vehicle: Klucel (hydroxypropylcellulose) (HPC)",105 % of control
COC(=O)C12OCC34C(CC5C(C)C6=CC(=O)OC6=CC5(C)C3C(O)C1O)OC(=O)C(OC(C)=O)C24 (configuration not stated),T/C,"dose: 0.25 mg/kg/injection, schedule: Q07DX002 (ip), vehicle: saline + alcohol",86 % of control
same,T/C,"dose: 0.5 mg/kg/injection, schedule: Q07DX002 (ip), vehicle: saline + alcohol",65 % of control
same,T/C,"dose: 1.0 mg/kg/injection, schedule: Q07DX002 (ip), vehicle: saline + alcohol",96 % of control
same,T/C,"dose: 2.0 mg/kg/injection, schedule: Q07DX002 (ip), vehicle: saline + alcohol",105 % of control
same,T/C,"dose: 4.0 mg/kg/injection, schedule: Q07DX002 (ip), vehicle: saline + alcohol",114 % of control
Cc1c2ccc3ccccc3c2c[n+]2ccccc12,T/C,"dose: 5.0 mg/kg/injection, schedule: Q07DX002 (ip), vehicle: Klucel (hydroxypropylcellulose) (HPC)",111 % of control and 87 % of control
same,T/C,"dose: 10.0 mg/kg/injection, schedule: Q07DX002 (ip), vehicle: Klucel (hydroxypropylcellulose) (HPC)",77 % of control
same,T/C,"dose: 40.0 mg/kg/injection, schedule: Q07DX002 (ip), vehicle: Klucel (hydroxypropylcellulose) (HPC)",89 % of control
C[CH2][Sn]1([CH2]C)[O]OC(c2ccccc2)[O]1 (configuration not stated),T/C,"dose: 1.56 mg/kg/injection, schedule: Q07DX002 (ip), vehicle: saline with Tween-80",121 % of control
same,T/C,"dose: 6.25 mg/kg/injection, schedule: Q07DX002 (ip), vehicle: saline with Tween-80",237 % of control
same,T/C,[8],195 % of control
same,T/C,[9],84 % of control
N=C1C=C[C@]2(O)C[C@H](Cl)CN12,T/C,"dose: 1.56 mg/kg/injection, schedule: Q07DX002 (ip), vehicle: saline",73 % of control
same,T/C,"dose: 3.12 mg/kg/injection, schedule: Q07DX002 (ip), vehicle: saline",79 % of control
same,T/C,"dose: 6.25 mg/kg/injection, schedule: Q07DX002 (ip), vehicle: saline",71 % of control
same,T/C,"dose: 12.5 mg/kg/injection, schedule: Q07DX002 (ip), vehicle: saline",88 % of control
CC(=O)OCC1OC(OC2=C(CC=C(C)C)C(=O)c3ccccc3C2=O)C(OC(C)=O)C(OC(C)=O)C1OC(C)=O (configuration not stated),T/C,"dose: 12.5 mg/kg/injection, schedule: Q07DX002 (ip), vehicle: Klucel (hydroxypropylcellulose) (HPC)",205 % of control and 81 % of control
same,T/C,[4],181 % of control
same,T/C,[5],113 % of control and 103 % of control
same,T/C,[6],151 % of control
same,T/C,[7],190 % of control
O=[N+]([O-])c1ccc(Sc2ccncn2)c([N+](=O)[O-])c1,T/C,[8],51 % of control
same,T/C,[9],64 % of control and 74 % of control
same,T/C,[10],43 % of control and 44 % of control
C=C1CCOC2(C(O)C(C)(O)CO)NC(=O)C1(O)NC2=O (configuration not stated),T/C,"dose: 225.0 mg/kg/injection, schedule: Q07DX002 (ip), vehicle: saline",104 % of control
same,T/C,"dose: 450.0 mg/kg/injection, schedule: Q07DX002 (ip), vehicle: saline",74 % of control
same,T/C,"dose: 900.0 mg/kg/injection, schedule: Q07DX002 (ip), vehicle: saline",81 % of control
same,T/C,"dose: 1800.0 mg/kg/injection, schedule: Q07DX002 (ip), vehicle: saline",46 % of control
Cc1cc(O)c(O)c(Oc2cc(C)cc(O)c2O)c1,T/C,"dose: 0.35 mg/kg/injection, schedule: Q07DX002 (ip), vehicle: saline",96 % of control
same,T/C,"dose: 0.7 mg/kg/injection, schedule: Q07DX002 (ip), vehicle: saline",78 % of control
same,T/C,"dose: 1.4 mg/kg/injection, schedule: Q07DX002 (ip), vehicle: saline",77 % of control
ClC(Cl)(Cl)C1=NCc2nnn(Cc3ccccc3)c2N1,T/C,"dose: 12.5 mg/kg/injection, schedule: Q07DX002 (ip), vehicle: distilled water + Tween-80",116 % of control
same,T/C,"dose: 25.0 mg/kg/injection, schedule: Q07DX002 (ip), vehicle: distilled water + Tween-80",80 % of control
same,T/C,[9],97 % of control
same,T/C,[10],102 % of control
same,T/C,"dose: 200.0 mg/kg/injection, schedule: Q07DX002 (ip), vehicle: distilled water + Tween-80",80 % of control
same,T/C,"dose: 400.0 mg/kg/injection, schedule: Q07DX002 (ip), vehicle: saline with Tween-80",155 % of control
CC1(C)OCC(CO)(Nc2nc(N3CC3)nc(N3CC3)n2)CO1,T/C,"dose: 1.25 mg/kg/injection, schedule: Q07DX002 (ip), vehicle: saline",72 % of control
same,T/C,"dose: 1.25 mg/kg/injection, schedule: Q07DX003 (ip), vehicle: saline",166 % of control
same,T/C,"dose: 2.5 mg/kg/injection, schedule: Q07DX002 (ip), vehicle: saline",75 % of control
same,T/C,"dose: 2.5 mg/kg/injection, schedule: Q07DX003 (ip), vehicle: saline",111 % of control
same,T/C,"dose: 5.0 mg/kg/injection, schedule: Q07DX002 (ip), vehicle: saline",65 % of control
same,T/C,"dose: 5.0 mg/kg/injection, schedule: Q07DX003 (ip), vehicle: saline",49 % of control
same,T/C,"dose: 10.0 mg/kg/injection, schedule: Q07DX002 (ip), vehicle: saline",15 % of control
O=C(O)/C=C/C(=O)Nc1ccc(Cl)c(Cl)c1,T/C,"dose: 12.5 mg/kg/injection, schedule: Q07DX003 (ip), vehicle: Klucel (hydroxypropylcellulose) (HPC)",84 % of control
same,T/C,[4],67 % of control
same,T/C,[5],77 % of control
same,T/C,"dose: 50.0 mg/kg/injection, schedule: Q07DX003 (ip), vehicle: Klucel (hydroxypropylcellulose) (HPC)",69 % of control
same,T/C,[6],78 % of control
same,T/C,"dose: 100.0 mg/kg/injection, schedule: Q07DX003 (ip), vehicle: Klucel (hydroxypropylcellulose) (HPC)",122 % of control
same,T/C,[7],67 % of control
CCCCC(C)(C(=O)OCC)C(=O)OCC,T/C,"dose: 25.0 mg/kg/injection, schedule: Q07DX003 (ip), vehicle: Klucel (hydroxypropylcellulose) (HPC)",68 % of control and 69 % of control
same,T/C,"dose: 200.0 mg/kg/injection, schedule: Q07DX003 (ip), vehicle: Klucel (hydroxypropylcellulose) (HPC)",63 % of control and 85 % of control
same,T/C,"dose: 400.0 mg/kg/injection, schedule: Q07DX003 (ip), vehicle: Klucel (hydroxypropylcellulose) (HPC)",91 % of control and 102 % of control
